According to patent US20220362174A1, “Use of R-enantiomer Beta2-agonists for prevent and treatment of pulmonary inflammation and inflammatory remodeling for reduced adverse effects” (priority 2019, published 2022):
“Also recorded” adds a separate entry of the source.

How the values were obtained:
OVA induced asthma mice [1] = test: Combination therapy of ipratropium with RS-, R- and S-salbutamol: airway resistance in response to methacholine; assay type: in vivo; conditions: for increase in airway resistance after treatment: response to methacholine, OVA + Saline 445%
Protocol: OVA sensitized/challenged asthma model Mice were sensitized and challenged with ovalbumin (OVA) or normal saline. […] On days 21, 22 and 23, the mice were challenged with 1% OVA in saline (0.01 g/mL) for 20 min via. a nebulizer (PART Turbo boy). […] In vivo airway responsiveness to methacholine (Mch) was assessed on day 28 in conscious, freely moving, spontaneously breathing mice by a whole-body plethysmography (Buxco Electronics Inc.). […] Before Mch challenge, a 20 μL drug aerosol or saline was given to the mice because of the short-acting bronchodilating effect of terbutaline. The degree of bronchoconstriction was expressed as enhanced pause (Penh), a calculated dimensionless value that correlates with measurement of airway resistance, impedance, and intrapleural pressure. […] Methods used were similar as mentioned above. Nebulized aerosol of saline, Methacholine 2 mg/ml (low dose) or 10 mg/ml (high dose) were given via inhalation to OVA induced asthma mice.

p38 MAPK = test: Western blot of lung tissue: p38 MAPK phosphorylation; assay type: in vivo, mice; conditions: vs OVA group
Protocol: (§1) OVA sensitized/challenged asthma model Mice were sensitized and challenged with ovalbumin (OVA) or normal saline. Briefly, mice were sensitized by intraperitoneal (i.p.) injection of 0.2 mL of 2% aluminum hydroxide (ALUM) gel containing 10 μg of OVA antigen on days 0 and 14. On days 21, 22 and 23, the mice were challenged with 1% OVA in saline (0.01 g/mL) for 20 min via. a nebulizer (PART Turbo boy). On day 26, a 20 min nebulized OVA challenge with 5% OVA in saline (0.05 g/mL) was conducted. The control group received 0.2 mL of saline with 2% ALUM administered intraperitoneally on days 0 and 14 before receiving 20 min nebulized normal saline without OVA on days 21, 22, 23 and 26.
Total protein from lung tissue was extracted according to the guidelines of manufacturer (Beyotime, China) and the concentrations were determined by BCA assay (Pierce). Primary antibodies against p38 MAPK (CST #8690), p-p38 MAPK (Thr180/Tyr182, CST #4511), NF-κB p65 (GeneTex #GTX102090), p-NF-κB p65 (S536, CST #3033) and GAPDH (Affinity #AF7021) as a standard were purchased and used.

[2] = test system: OVA-sensitized/OVA-challenged mice; test: Lung histopathology (H&E, PAS, Masson) after R-, S-, rac-terbutaline; assay type: in vivo
Protocol: as §1
(§2) Left lung tissue was obtained for histopathology and fixed in 10% formalin for 24 h, followed by paraffin-embedded and then were sectioned at 4 μm for routine staining with hematoxylin and eosin (H&E, Solarbio, Beijing, China), or with periodic acid-Schiff (PAS, Solarbio, Beijing, China), or submitted to Masson's trichrome staining (Baso, Zhuhai, China). Images of the stained lung sections were obtained by an Axisplus image-capturing system (Zeiss, Germany) and then a minimum of 3 bronchi (luminal diameter, 150-500 μm) were analyzed per mice for various parameters using an image analyzing computer system (IPP) by pathologists blinded to grouping. Histological score, airway smooth muscle thickness, PAS score (goblet cells hyperplasia), and collagen deposition were evaluated by a semi-quantitative scoring method.

[3] = test system: OVA-sensitized/OVA-challenged mice; test: Whole blood analysis and eosinophils counts in BAL fluid; assay type: in vivo; conditions: OVA asthma mice after repeated inhalation
Protocol: as §1
After Methacholine challenge, mice were anesthetized, blood was collected for hematology analysis. Part of the collected blood was transferred to a heparinized Eppendorf tube, gently mixed and centrifuged under 845×g at 4° C. for 10 min to isolate plasma specimen for further analysis. Broncho alveolar lavage (BAL) was performed on the right lung using 0.3 mL of phosphate buffered saline (PBS) for four times. The saline was instilled into the lungs and allowed to equilibrate for 30 s before recovery, after centrifugation supernatants were stored at −80° C. for further cytokines analysis while cell pellet was suspended in 0.5 ml PBS and the eosinophils counts were performed using Wright's stain. Then all the organs (liver, right lung lobe, spleen, kidneys, heart, brain) were excised surgically and washed totally with ice-cold PBS to clear the blood and then blotted dry with filter paper. These tissue specimens were then accurately weighted and stored at −80° C. for detecting the drug distribution by LC-MS/MS. White blood cell (WBC) counts and differential WBC counts were analyzed using a ProCyte Dx Hematology Analyzer (IDEXX Laboratories) in 4 h after blood collection.

[4] = test system: OVA-sensitized/OVA-challenged mice; test: Airway responsiveness to methacholine by whole-body plethysmography (Penh) in OVA sensitized/challenged asthma model; assay type: in vivo
Protocol: as §1
In vivo airway responsiveness to methacholine (Mch) was assessed on day 28 in conscious, freely moving, spontaneously breathing mice by a whole-body plethysmography (Buxco Electronics Inc.). Mice were challenged with aerosolized saline or increasing concentrations of Mch (2, 10, 20 mg/mL) administered by an ultrasonic nebulizer for 2 min. Before Mch challenge, a 20 μL drug aerosol or saline was given to the mice because of the short-acting bronchodilating effect of terbutaline. The degree of bronchoconstriction was expressed as enhanced pause (Penh), a calculated dimensionless value that correlates with measurement of airway resistance, impedance, and intrapleural pressure. Penh values were recorded and averaged for 4 min after each nebulization challenge.

[5] = test system: macrophages from the peritoneal fluid; test: LPS-induced proliferation and polarization of macrophages from the peritoneal fluid (sepsis); assay type: in vivo; conditions: in comparison of sepsis condition
Excerpt: Macrophage activation and proliferation was considered to be the key step of initiation and development of sepsis. In one embodiment, LPS (PAMPs from bacteria) induced a proliferation and polarization of macrophages from the peritoneal fluid. […] These inhibitory effects can be blocked by using specific β2-recepter blocker.

BALB/c mice [6] = test: Survival study after LPS challenge (sepsis); assay type: in vivo; conditions: for Percent of death after LPS challenges, 12 h: Saline + LPS 0; for Percent of death after LPS challenges, 24 h: Saline + LPS 36.4; for Percent of death after LPS challenges, 36 h: Saline + LPS 72.7; for Percent of death after LPS challenges, 48 h / Percent of death after LPS challenges, 72 h / Percent of death after LPS challenges, 144 h: Saline + LPS 90.9
Protocol: Treatment were given intraperitoneally for 3 consecutive days. One hour after the 3rd day treatments, LPS (15 mg/kg) was administered intraperitoneally. The animals were monitored. Survival rate was then recorded every 12 h for 144 hours.

BALB/c mice [7] = test: Lung function measurements 6 hours after LPS (Buxco); assay type: in vivo; conditions: 5.0 mg/kg
Protocol: Methods: Survival study: […] Treatment were given intraperitoneally for 3 consecutive days. […] The animals were monitored. Survival rate was then recorded every 12 h for 144 hours. The lung functions were measured with using Buxco system (Buxco Electronics, USA). After a brief acclimation to the chamber, the mice received an initial baseline challenge of saline. Measures were made at 6 hours after administration of LPS, including tidal volume and Penh which is an indication of airway resistance.

[8] = test system: LPS-induced macrophage RAW264.7 cells; test: M1 macrophage cytokines (TNF-α, IL-1β, MCP-1) by ELISA; assay type: cell-based; conditions: LPS challenge
Protocol: (§3) Macrophages were treated without or with (R)/(S)-salbutamol for 1 h prior to LPS stimulation and subsequently incubated for 12 h. […] The fluorescence of the oxidized product (2′,7′-dichlorofluorescein, DCF) was assessed using an LSM710 Laser Scanning Confocal Microscope (Carl Zeiss, Jena, Germany). The concentration of NO in the culture supernatant was measured by assaying the concentrations of nitrite (a stable NO breakdown product) using the Griess assay (Beyotime, Shanghai, China), according to the manufacturer's instructions. The intracellular NO level was detected using the NO-sensitive fluorescence probe DAF-FM DA (Sigma, St. Louis, Mo., USA) (24). Cells were labeled with DAF-FM DA (10 μM) at 37° C. for 30 min and were gently washed three times with PBS. Fluorescence was detected using a LSM710 Laser Scanning Confocal Microscope (Scale bars, 100 μm) (Carl Zeiss, Jena, Germany).
To confirm that M1 polarization was predominant over M2 polarization after stimulation with LPS, the levels of typical M1 macrophage cytokines (i.e., TNF-α, IL-1β and MCP-1) were quantified using ELISA; these cytokines are mainly synthesized by macrophages and play an important role in inflammatory diseases (35,36). This invention disclosed that TNF-α […] from 2.62-fold to 0.75-fold of control levels following LPS stimulation (FIG. 8A). IL-1β is a hallmark of many chronic inflammatory diseases in humans and is reportedly associated with acute phase reactions (35,37). […] We conclude that LPS is likely to lead to M1 polarization but not M2 polarization.

[9] = test system: LPS-induced RAW264.7 cells; test: NO production (DAF-FM DA probe, Griess assay); assay type: cell-based; conditions: LPS-induced cells
Protocol: as §3
In addition, the concentration of NO in the culture supernatant was measured by assaying the concentrations of nitrite (a stable NO breakdown product) using the Griess assay. […] To investigate (R)-salbutamol role on the level of iNOS, the mRNA and protein levels of iNOS were determined.

[10] = test system: LPS-induced RAW264.7 cells; test: Intracellular ROS (DCFH-DA); assay type: cell-based; conditions: LPS-induced cells
Protocol: as §3
LPS can promote cell apoptosis through mitochondrial dysfunction, and mitochondria are the major source of ROS.

[11] = test system: LPS-induced RAW264.7 cells; test: M1/M2 macrophage polarization by flow cytometry; assay type: cell-based; conditions: pretreated prior to LPS 100 ng/mL; basal 24.7%, LPS 59.2%; (R)-salbutamol 10 μM
Protocol: as §3
Macrophages M1 (F4/80+/CD11c+/CD206−) and M2 (F4/80+/CD11c−/CD206+) polarization were analyzed using flow cytometry.

OVA induced asthma mice [12] = test: Combination therapy of ipratropium with R- and S-salbutamol: lung histopathology (Masson, PAS); assay type: in vivo
Protocol: as §2
Methods used were similar as mentioned above. Nebulized aerosol of saline, Methacholine 2 mg/ml (low dose) or 10 mg/ml (high dose) were given via inhalation to OVA induced asthma mice.

## CC(C)(C)NCC(O)c1ccc(O)c(CO)c1 (racemic) [RS salbutamol, salbutamol]
OVA induced asthma mice [1]
  increase in airway resistance after treatment: 214%

## CC(C)(C)NCC(O)c1cc(O)cc(O)c1 (racemic) [rac-terbutaline, terbutaline]
p38 MAPK
  p38 MAPK phosphorylation (ratio of phosphorylated to total p38 MAPK): much less effects
[2]; Example 3, vs model
  PAS stain of lung tissues: inflammatory and histopathological changes, collagen deposition: significant less beneficial effects
[2]; rac-terbutaline at double dose
  degree of inflammatory cell infiltration (H&E, histological score): ameliorated
[2]; vs OVA group
  PAS and Masson staining: subepithelial matrix glycoproteins, goblet cell hyperplasia, collagen deposition: much less or not effective
[3]; listed as RS(rac)-terbutaline
  per cent of eosinophil counts in blood and BALF: significantly higher
[3]; listed as racemic terbutaline
  per cent of eosinophil counts in blood and BALF: less but similar effects as S-terbutaline
[4]; Mch 2, 10, 20 mg/mL aerosol, rac-ter at double dose of R-ter
  airway bronchoconstriction/hyperactivity (Penh) in response to increased doses of Mch: much less effect
[4]; exposure to saline, after 7 days inhalation pretreatment, OVA group 0.80±0.12, Control group 0.55±0.08, rac-terbutaline at double molar amount
  baseline Penh value (baseline airway reactivity): significantly reduce

## OCc1cc([C@H](O)CNCCCCCCOCCCCc2ccccc2)ccc1O [(S)-salmeterol, reference compound]
[5]
  polarized M1 macrophages or M2 macrophages: further increased

## C[C@@H]1C[C@H]2[C@@H]3CCC4=CC(=O)C=C[C@]4(C)[C@@]3(F)[C@@H](O)C[C@]2(C)[C@@]1(O)C(=O)CO [Dexamethasone, dexamethasone, reference compound]
BALB/c mice [6]; 5.0 mg/kg + LPS
  Percent of death after LPS challenges, 12 h: 0%
  Percent of death after LPS challenges, 24 h: 90.9%
  Percent of death after LPS challenges, 36 h: 90.9%
  Percent of death after LPS challenges, 48 h: 100%
  Percent of death after LPS challenges, 72 h: 100%
  Percent of death after LPS challenges, 144 h: 100%
BALB/c mice [7]; LPS + saline 0.13 ± 0.03
  Tidal volume: 0.15 ± 0.04 mL
BALB/c mice [7]; LPS + saline 1.31 ± 0.40
  Penh: 1.01 ± 0.46

## CC(C)(C)NC[C@@H](O)c1ccc(O)c(CO)c1 [S-salbutamol, (S)-salbutamol, reference compound]
[8]
  release and expression of cytokines in LPS induced M1 macrophages (in words): had the opposite effects
[8]; listed as S-albuterol
  release and expression of cytokines in LPS induced M1 macrophages (in words): increased the release of cytokines
BALB/c mice [6]; 0.5 mg/kg + LPS
  Percent of death after LPS challenges, 12 h: 0%
  Percent of death after LPS challenges, 24 h: 36.4%
  Percent of death after LPS challenges, 36 h: 90.9%
  Percent of death after LPS challenges, 48 h: 90.9%
  Percent of death after LPS challenges, 72 h: 90.9%
  Percent of death after LPS challenges, 144 h: 90.9%
BALB/c mice [6]; in comparison of LPS challenged group without pretreatment (mortality 90.9%)
  rate of mortality/death after LPS challenge (in words): same rate of death at 48 hours; also recorded: higher rate of death at 36 h
[9]
  production/levels of NO (in words): increased
[10]
  production/levels of ROS (in words): increased
OVA induced asthma mice [1]
  increase in airway resistant in response to methacholine (in words): much greater; also recorded: further enhance the airway response to methacholine
  increase in airway resistance after treatment: 486%
[11]
  prevalence of M1 macrophages (F4/80+/CD11c+/CD206−): facilitated macrophage polarization
OVA induced asthma mice [12]; vs OVA model
  PAS staining: goblet cell hyperplasia, mucus over secretion, airway edema: further worsen the inflammatory condition
OVA induced asthma mice [12]; vs ova (model) group
  Masson staining: collagen deposition, wall thickness of bronchiole and vascular vessels: further worsens the inflammatory conditions and further increased the wall thickness
